Experiments:
C2C12 Cells = experiment: Glucose utilization in cultured C2C12 cells (myotubes); type: cell-based, mouse; settings: glucose concentration in medium relative to untreated cells; 5 μM peptide, 22 h
Protocol: The effect of the peptides on glucose homeostasis can be assessed using an assay to monitor glucose utilization by cultured cells such as mouse myotubes. Peptide arrays were initially prepared as 5 mM stock in DMSO and diluted to 0.5 mM in H2O; peptides were used at a final concentration of 5 μM (0.1% DMSO). Calculations for peptide concentrations based on approximate molecular weight of 2000 Daltons. C2C12 mouse muscle cell line was purchased from Millipore Sigma (Saint Louis, Mo.). C2C12 cells were seeded in standard medium (DMEM/low glucose (1 g/L)+10% Fetal Bovine Serum+antibiotics) at 7,500 cells/well on 96-well plates and grown to confluence at 37° C. in a humidified atmosphere of 5% CO2/95% air. Three days after plating the medium was removed and with Differentiation Medium (DMEM/low glucose (1 g/L)+2% Horse Serum+antibiotics) added. The cultures were placed at 37° C. in a humidified atmosphere of 5% CO2/95% air for 5 days with partially replacement of medium daily. After 5 days of differentiation, the medium was removed from myotube cultures and replaced with Assay Medium (DMEM/low glucose (1 g/L)+antibiotics). Culture were placed at 37° C. in a humidified atmosphere of 5% CO2/95% air for 5 h. Following the 5 h incubation the medium was removed and fresh Assay Medium containing compounds was added; 5 μM peptide or 1 mM metformin as a potent stimulator of glucose utilization. Cells were incubated for 22 h at 37° C. in a humidified atmosphere of 5% CO2/95% air. Following 22 h incubation, conditioned medium from each well was transferred to a fresh 96-well plate. Glucose concentrations in the medium were determined using a Glucose Assay kit (Abcam; Cambridge, Mass.) according to the manufacturer's instructions; absorbance measured using a Cytation 3 plate reader at 570 nm (BioTek, Winooski, Vt.). Untreated cells were used as reference for basal glucose utilization. Absorbance values were expressed as percent control activity relative to untreated treated cells for 5 μM peptide. The relative standard deviation from plate to plate of untreated control was <10%. […] Data presented are representative values from 2-3 independent experiments with each data point performed in triplicate in each independent experiment.

3T3-L1 Mouse Adipocytes = experiment: Free fatty acid levels in cultured 3T3-L1 mouse adipocytes (isoproterenol stimulated); type: cell-based; settings: free fatty acid in medium; 5 μM peptide, 20-22 h pre-incubation then 3 h with 0.1 nM isoproterenol; isoproterenol alone = 100%
Protocol: The effect of the peptides on fatty acid metabolism can be assessed using an assay to monitor free fatty acid levels produced by cultured cells such as mouse adipocytes. Peptide arrays were initially prepared as 5 mM stock in DMSO and diluted to 0.5 mM in H2O; peptides were used at a final concentration of 5 μM (0.1% DMSO). Calculations for peptide concentrations based on approximate molecular weight of 2000 Daltons. […] Mouse 3T3-L1 cells purchased from ZenBio (Research Triangle Park, NC) were seeded at 3,000 cells per well in 96-well plates in Pre-adipocyte Medium (Zen-Bio) and grown to confluence at 37° C. in a humidified atmosphere of 5% CO2/95% air. Two days after confluence, cells were placed in Adipocyte Differentiation Medium (Zen-Bio) and cultured for three additional days at 37° C. in a humidified atmosphere of 5% CO2/95% air. The culture medium was then replaced with Adipocyte Maintenance Medium (Zen-Bio) and the cells maintained for an additional 9 days at 37° C. in a humidified atmosphere of 5% CO2/95% air with partial medium replacement every other day. Following 12 days of differentiation, medium was replaced Adipocyte Maintenance Medium without insulin and the cultures placed at 37° C. in a humidified atmosphere of 5% CO2/95% air. On day 13 of differentiation, test peptides were added directly to each well (without replacing the medium) at a final concentration of 5 μM in 0.1% DMSO and incubated for 20-22 hours at 37° C. in a humidified atmosphere of 5% CO2/95% air. […] Cells were incubated for 3 hours in Assay Buffer (Zen-Bio) at 37° C. in a humidified atmosphere of 5% CO2/95% air. Following 3 h incubation, conditioned medium from each well was transferred to a fresh 96-well plate. Free fatty acid concentrations in the medium were determined using a Free Fatty Acid Assay kit (Zen-Bio) according to the manufacturer's instructions; absorbance was measured using a Cytation 3 plate reader at 540 nm (BioTek, Winooski, Vt.). Treatment with 0.1 nM isoproterenol alone was used as the free fatty acid level stimulatory control. Absorbance values were expressed as percent control activity relative to 0.1 nM isoproterenol alone treated cells, 100%. The relative standard deviation of the isoproterenol control was <10%. Insulin at 0.25 nM was used as a potent control for decreasing free fatty acid levels. […] Data presented are representative values from 2 independent experiments with each data point performed in triplicate in each independent experiment.

H4-IIE Cells = experiment: Glucose production in cultured H4-IIE cells; type: cell-based, rat; settings: glucose concentration in medium relative to untreated cells; 5 μM peptide, 24 h
Protocol: The effect of the peptides on glucose homeostasis can be assessed using an assay to monitor glucose production by cultured cells such as rat hepatocytes. Peptide arrays were initially prepared as 5 mM stock in DMSO and diluted to 0.5 mM in H2O; peptides were used at a final concentration of 5 μM (0.1% DMSO). Calculations for peptide concentrations based on approximate molecular weight of 2000 Daltons. H4-IIE rat hepatic cell line was purchased from American Type Culture Collection (Manassas, Va.). H4-IIE cells were seeded in standard medium (DMEM/high glucose+10% Fetal Bovine Serum+antibiotics) at 100,000 cells/well on 96-well plates and allowed to adhere overnight at 37° C. in a humidified atmosphere of 5% CO2/95% air. 24 h after seeding, the medium was removed, cells were rinsed with glucose free DMEM, and the medium replaced with Glucose Production Medium (glucose free DMEM+2 mM sodium pyruvate+10 mM sodium lactate+antibiotics). The cultures were placed at 37° C. in a humidified atmosphere of 5% CO2/95% air overnight. The next morning, the medium was removed and fresh Glucose Production Medium containing compounds was added; 5 uM peptide or 0.5-1 nM insulin as a potent inhibitor of glucose production. Cells were incubated for 24 h at 37° C. in a humidified atmosphere of 5% CO2/95% air. Following 24 h incubation, conditioned medium from each well was transferred to a fresh 96-well plate. Glucose concentrations in the medium were determined using a Glucose Assay kit (Abcam; Cambridge, Mass.) according to the manufacturer's instructions; absorbance measured using a Cytation 3 plate reader at 570 nm (BioTek, Winooski, Vt.). Untreated cells were used as reference for maximal glucose production. Absorbance values were expressed as percent control activity relative to untreated treated cells for 5 μM peptide. The relative standard deviation from plate to plate of untreated control was <25%. […] Glucose levels for 0.5-1 nM insulin treatment were <5% of the untreated control value. Data are presented as representative values from 2-3 independent experiments with each data point performed in triplicate in each independent experiment.

Row | Substance | Percent of Control Activity (C2C12 Cells) [%] | Percent of Isoproterenol Control Activity (3T3-L1 Mouse Adipocytes) [%] | Percent of Control Activity (H4-IIE Cells) [%]
1 | 53 (MIYVSSDVGDWWKGGWGVWWVVHG) [compound 53] | 101 | 91 | 115
2 | 54 (MKFEIWLGWC) [compound 54] | 103 | 104 | 113
3 | 55 (MKHRQVLWVLSCGS) [compound 55] | 103 | 98 | 118
4 | 56 (MKNHRCISTT) [compound 56] | 104 | 89 | 112
5 | 57 (MKPFTVHSTLQSNPFSSPWMTPL) [compound 57] | 107 | 102 | 112
6 | 58 (MKPMSPMRLY) [compound 58] | 101 | 105 | 112
7 | 59 (MKSPSTLTTQSKTPSAYFSSFSP) [compound 59] | 108 | 100 | 108
8 | 60 (MLEIVMGMETYHMSNA) [compound 60] | 101 | 94 | 105
9 | 61 (MLFMRGNAMSGAPII) [compound 61] | 104 | 86 | 107
10 | 62 (MLGVVGWCRL) [compound 62] | 91 | 94 | 106
11 | 65 (MLKPETSSDSPSA) [compound 65] | 99 | 99 | 102
12 | 66 (MLLGWRFQLGAWVGGLQ) [compound 66] | 101 | 104 | 101
13 | 67 (MLLMWWVSEPHCVVVNM) [compound 67] | 88 | 116 | 107
14 | 68 (MLLNSHRCSMSKDNHHSP) [compound 68] | 99 | 99 | 105
15 | 69 (MLMVEWWLGWLHM) [compound 69] | 107 | 104 | 111
16 | 70 (MLNWSNNLTNGTSYP) [compound 70] | 118 | 110 | 105
17 | 71 (MLPLHIYHNTMGLTHPPH) [compound 71] | 105 | 89 | 107
